The assay has as its system normal bank blood. In words: In vitro pO2 and hemoglobin saturation of bank blood after oxygen or ozone/oxygen treatment. To be noted: 5 minutes after gas administration. The protocol: Ozone/oxygen was obtained from a pure (medical grade) oxygen by means of a medical ozone generator (Ozomed, a device manufactured in N.C.S.R., Havana, Cuba), at a concentration of 50 mg ozone/L oxygen (ca. 3.7%).
The ability of ozone/oxygen to in vitro raise pO2 of normal bank blood was compared to that of pure medical oxygen. To each one often paired (5+5) blood samples (5 mL each) contained in closed 10 ml vials, 2.5 mL of pure oxygen or ozone/oxygen mixture respectively were carefully bubbled through. Gasometric analyses were performed in test samples 5 minutes after gas administration and also in control untreated samples.

The results in this text go back to patent publication US20180133248A1, “T[…] AGENT AND TREATMENT” (priority 2014, published 2018).

Consider `O=O` [O2, oxygen], for which the PO2 (5 mL blood, 2.5 mL gas bubbled through, n = 5, control 41 ± 1) is recorded as 73 ± 2. For the same molecule, under “n = 5”, the “PO2 rise (%) (above control)” value stood at 78%. The same molecule gave an HB saturation (n = 5, control 60 ± 1) of 86 ± 2.
